Source: PubChem BioAssay (NCI)
Where “and” joins values, the source holds several entries; their conditions need not be identical. Equal entries are not always repeated.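 Following 48 hours of exposure in 96-well plates, responses at five concentrations were used to interpolate endpoints linearly. GI50 marks 50% less growth. TGI denotes the concentration required for complete inhibition of growth.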

What was measured:
Experiment in all cases: NCI tumour cell line growth inhibition, 48 h
SNB-75 CNS = system: SNB-75 CNS
UACC-62 melanoma = system: UACC-62 melanoma
HOP-62 NSCLC = system: HOP-62 NSCLC
SK-MEL-28 melanoma = system: SK-MEL-28 melanoma
MALME-3M melanoma = system: MALME-3M melanoma
UO-31 renal = system: UO-31 renal
SNB-19 CNS = system: SNB-19 CNS
NCI-H23 lung = system: NCI-H23 lung
HCC-2998 colon = system: HCC-2998 colon
RPMI-8226 leukemia = system: RPMI-8226 leukemia

Compound | GI50 (SNB-75 CNS) [µM] | TGI (SNB-75 CNS) | GI50 (UACC-62 melanoma) [µM] | TGI (UACC-62 melanoma) [µM] | GI50 (HOP-62 NSCLC) [µM] | TGI (HOP-62 NSCLC) [µM] | GI50 (SK-MEL-28 melanoma) [µM] | TGI (SK-MEL-28 melanoma) [µM] | GI50 (MALME-3M melanoma) [µM] | TGI (MALME-3M melanoma) [µM] | GI50 (UO-31 renal) [µM] | TGI (UO-31 renal) | GI50 (SNB-19 CNS) [µM] | TGI (SNB-19 CNS) [µM] | GI50 (NCI-H23 lung) [µM] | TGI (NCI-H23 lung) | GI50 (HCC-2998 colon) [µM] | TGI (HCC-2998 colon) [µM] | GI50 (RPMI-8226 leukemia) [µM] | TGI (RPMI-8226 leukemia)
O=Nc1c2cccnc2n2nnc3ccc(Cl)cc3c12 | 3.19 | 11.4 µM | 3.99 | 11.2 | 4.64 | 11.4 | 2.39 | 5.36 | 1.57 | 4.95 | 1.05 | 9.51 µM | 5.5 | 22 | 2.09 | 10.2 µM | 1.72 | 4.95 | 0.258 | 1.7 µM
COc1ccc(N=Cc2ccc(N(CCC#N)CCC#N)cc2)cc1 | – | > 100 µM | – | > 100 | – | > 100 | – | > 100 | – | > 100 | – | > 100 µM | – | > 100 | – | > 100 µM | – | > 88.1 | – | > 100 µM
CN(C)CCNc1cccc2sc3ccc(O)cc3c(=O)c12 | 2.33 | 12.2 µM | 1.43 | 2.87 | 2.29 | 6.58 | 1.74 | 3.88 | 1.59 | 3.13 | 1.16 | 3.58 µM | 4.04 | 17.4 | 4.03 | 17 µM | 1.56 | 3.1 | 1.84 | 4.98 µM
C=C(CNCCO)[C@@H]1CC[C@]2(CO)CC[C@]3(C)[C@H](CC[C@@H]4[C@@]5(C)CCC(NCCc6ccc(O)cc6)C(C)(C)[C@@H]5CC[C@]43C)[C@@H]12 (stereo not given in full) | 1.31 | 2.63 µM | 1.75 | 3.24 | 1.59 | 2.99 | 1.6 | 3.1 | 1.59 | 3.13 | 1.51 | 2.94 µM | 1.6 | 3.03 | 1.77 | 3.45 µM | 0.355 | 1.43 | 1.02 | 3.13 µM
Cc1ccc2c(c1)sc(-c1ccc(N(C)C)cc1)[n+]2C | 4.55 | 34.8 µM | 2.07 | 15.5 | 3.66 | > 41.4 | 3.3 | 20.9 | 1.38 | 15.4 | 18.9 | > 100 µM | 1.95 | 21 | 0.987 | > 48.8 µM | 1.51 | 19 | 0.13 | 5.15 µM
O=c1oc2c3ccc4ccccc4c3n(Cc3nc4ccccc4[nH]3)c2c2ccccc12 | – | > 87.7 µM | – | > 100 | – | 75.3 | – | > 100 | – | > 100 | – | > 100 µM | – | > 100 | – | > 100 µM | – | > 100 | – | > 100 µM
COc1ccc2c(C3(O)CCNCC3)c[nH]c2c1 | – | > 100 µM | – | > 100 | – | > 100 | – | > 100 | – | > 100 | – | > 100 µM | – | > 100 | – | > 100 µM | – | > 100 | – | > 100 µM
O=C1NC(=O)C(c2ccccc2Cl)=C1Nc1cccc(O)c1 | 6.76 | > 20.2 µM | 2.25 | > 25 | 3.89 | > 25 | > 25 | > 25 | > 25 | > 25 | 7.24 | > 25 µM | 21.4 | > 25 | 10.5 | > 25 µM | > 25 | > 25 | 21.4 | > 25 µM
CCOC(OC1=C(C#N)CCC1)C(CC)[Se]c1ccccc1 (stereo not given) | – | 64.2 µM | – | 61.9 | – | > 100 | – | 90.4 | – | 66.7 | – | 73.6 µM | – | > 100 | – | 25.1 µM | – | 83.8 | – | 49.8 µM
CCCCS(=N)(=O)CC[C@H](N)C(=O)O (stereo not given in full) | > 10000 | 5000 µM and > 10000 µM | > 8090 | > 10000 | > 7620 | > 10000 | > 10000 | > 10000 | > 8490 | > 10000 | > 10000 | 2700 µM and > 10000 µM | > 10000 | > 10000 | > 10000 | 5000 µM and > 10000 µM | > 10000 | > 10000 | > 8560 | 4730 µM and > 10000 µM
c1ccc(COc2ccc3[nH]c4c(ncc5[nH]c6ccccc6c54)c3c2)cc1 | – | 25.5 µM | – | 35.3 | – | 30.5 | – | 31.6 | – | 18.2 | – | 32.8 µM | – | 33.5 | – | 35.3 µM | – | 23.6 | – | 8.01 µM
NC(=O)c1ccccc1NC(=O)C(=O)C(c1cnc2ccc([N+](=O)[O-])cc2n1)[N+](=O)[O-] (stereo not given) | – | > 100 µM | – | > 100 | – | > 100 | – | > 100 | – | > 100 | – | > 100 µM | – | > 100 | – | > 100 µM | – | > 100 | – | > 100 µM
